Test results from PubChem BioAssay (NCI).
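Five compound concentrations were applied to cells in 96-well plates for 48 hours; endpoints were derived by simple linear interpolation of the resulting dose-response curve. GI50 = concentration required for 50% inhibition of growth. TGI: concentration producing complete growth inhibition.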

Legend:
Assay in all cases: growth of human tumour cells (NCI), 48 h
[1] = tested on: A498 renal
[2] = tested on: CAKI-1 renal
[3] = tested on: SF-539 CNS
[4] = tested on: EKVX NSCLC
[5] = tested on: HOP-62 NSCLC
[6] = tested on: PC-3 prostate
[7] = tested on: 786-0 renal
[8] = tested on: NCI/ADR-RES ovarian
[9] = tested on: NCI-H226 lung
[10] = tested on: OVCAR-4 ovarian

| SMILES | GI50 [1] [µM] | TGI [1] [µM] | GI50 [2] [µM] | TGI [2] [µM] | GI50 [3] [µM] | TGI [3] [µM] | GI50 [4] [µM] | TGI [4] [µM] | GI50 [5] [µM] | TGI [5] [µM] | GI50 [6] [µM] | TGI [6] [µM] | GI50 [7] [µM] | TGI [7] [µM] | GI50 [8] [µM] | TGI [8] [µM] | GI50 [9] [µM] | TGI [9] [µM] | GI50 [10] [µM] | TGI [10] [µM] |
| --- | --- | --- | --- | --- | --- | --- | --- | --- | --- | --- | --- | --- | --- | --- | --- | --- | --- | --- | --- | --- |
| CC1(C)N=C(N)N=C(N)N1c1cccc(CCCCc2ccccc2)c1 | 1.75 | 15.9 | 4.15 | 22.3 | 0.212 | 7.39 | 0.87 | 20.6 | 0.556 | 22.2 | 0.0497 | 3.09 | 0.518 | 16.4 | > 73.4 | > 100 | 2.35 | 24.5 | 0.433 | 18.8 |
| NC(CSc1nc2ccccn2c1[N+](=O)[O-])C(=O)O (configuration not stated) |  | > 100 |  | > 100 |  | > 100 |  | > 100 |  | > 100 |  | > 100 |  | > 100 |  | > 100 |  | > 100 |  | > 100 |
| O=C(Nc1ccccc1)NS(=O)(=O)c1ccc(N2N=C3c4ccccc4CC3C2c2ccccn2)cc1 (configuration not stated) |  |  | 26.4 | 90.2 | 30.6 | 75.7 | 27.8 | > 100 | 20.4 | 45.5 | 36.6 | > 100 | 35.5 | > 100 | 64.4 | > 100 | 23.7 | 75.3 | > 100 | > 100 |
| OCCNc1ncnc2c1ncn2C1OC(CO)C(O)C1O (configuration not stated) |  | > 100 |  | > 100 |  | > 100 |  | > 100 |  | > 100 |  | > 100 |  | > 100 |  | > 100 |  |  |  | > 100 |
| COc1cc2ccnc3c2c(c1OC)-c1ccc(=O)ccc1-3 |  |  | 16.5 | 39.5 | 15.9 | 77.3 | 29.8 | 99 | 32.5 | > 100 | 29.7 | > 100 | 22.4 | > 100 | 17.4 | 57.6 | 17.7 | 45.8 | 21.7 | 74.7 |
| Cc1ncc(C(=O)Nc2ccc(CN3CCN(C)CC3)c(C(F)(F)F)c2)cc1C#Cc1cnc(N)c2ncccc12 | 0.228 | 2.38 | 0.0719 | 1.46 | 1.12 | 2.59 | 1.27 | 3.62 | 0.704 | 11.9 | 1.22 | 2.8 | 0.508 | 2.88 | 1.34 | 3.76 | 0.293 | 24.3 |  |  |
| O=C(NC(=S)NNC(=S)NNc1ccccc1)c1ccccc1 | 37.5 | > 100 | 4.75 | > 100 | 3.94 | 44.1 |  |  | 4.7 | > 100 |  |  | 24.8 | > 100 | 5.26 | > 100 | 4.62 | > 100 | 11 | > 100 |
| ClC1=NC(Cl)C(Cl)=N/C1=N\c1ncn[nH]1 (configuration not stated) | 17.8 | 33.4 | 1.78 | 3.32 | 2.22 | 5.6 |  |  | 2.3 | 5.11 |  |  | 3.41 | 11.4 | 3.15 | 8.79 | 3.27 | 15.9 | 1.89 | 3.61 |
| N#Cc1cccc(/C=C(/C(=O)c2ccccc2)c2ccccc2)c1 | 4.08 | 17.2 | 3.92 | 16.1 | 5.55 | 18.4 |  |  | 3.99 | 13.5 | 6.27 | 36.6 | 6.73 | 23.8 | 3.62 | > 100 | 6.45 | 26.7 | 6.35 | 20.3 |
| O=C1OC(C2=CC(=O)c3ccccc3C2=O)C(Cl)=C1Cl (configuration not stated) |  | > 100 |  | > 100 |  | 72.7 |  | > 100 |  | > 100 |  | 75.5 |  | 43.2 |  | > 100 |  | 95.3 |  |  |
| COc1ccc(/C=C/C(=O)c2ccc3cc(OC)c(OC)cc3c2)cc1OC | 2.66 | 23.1 | 4.29 | 65.4 | 2.94 | 10.4 |  |  | 3.92 | 22.1 | 3.08 | 13.3 | 4.19 | 27.9 | 2.71 | 8.85 | 2.97 | 13.5 | 3.5 | 36.7 |
| CCN(C(=O)CCl)C(C)(C)C(SSSC(c1ccc(Cl)cc1)C(C)(C)N(CC)C(=O)CCl)c1ccc(Cl)cc1 (configuration not stated) | 1.9 | 7.42 | 4.09 | 15.4 | 3.14 | 10.9 |  |  | 8.33 | 23.4 |  |  | 13.6 | 31.2 | 8.31 | 24 | 15 | 33.4 | 5.04 | 19.6 |
| Nc1c(C(=O)c2cccc(CCC3(O)CCCC3)c2)cnn1-c1ccc(F)cc1 | 3.62 | > 25 | > 25 | > 25 | 18.2 | > 25 |  |  | > 25 | > 25 | 8.98 | > 25 | > 20.4 | > 25 | 7.68 | > 25 | 8.04 | > 25 | 8.71 | > 25 |
| CC(=O)OC1CCC2(C)C(CCC3C4CC=C(C(C)=O)C4(C)OC(=O)CC32)C1 (configuration not stated) | 6.59 | 19.9 | 2.54 | 9 | 1.8 | 3.55 |  |  | 4.06 | 14.7 | 4.56 | 16.7 | 2.52 | 6.59 | 3.45 | 13 | 1.95 | 4.32 | 1.7 | 3.31 |
